Results from US20240425457A1, “COMPOSITIONS AND METHODS FOR SUPPRESSING AND/OR TREATING METABOLIC DISEASES AND/OR A CLINICAL CONDITION THEREOF” (CK Biotech Inc., priority 2018, published 2024).
Entries after “also recorded” stand apart in the source; their conditions may differ. Like-named read-outs stand apart in the source and are kept apart here. One block for each compound: values may come before it.

How the values were obtained:
3T3-L1 preadipocytes = experiment: adipocyte differentiation of 3T3-L1 preadipocytes, Oil Red O staining; type: cell-based
Protocol: Cell culture and adipocyte differentiation. 3T3-L1 cells were seeded in six-well plates at a density of 3×10^4 cells per well. The cells were grown in Dulbecco's modified Eagle medium (DMEM) with 10% bovine calf serum (Gibco) until confluent. After confluence, cells were induced to differentiate in DMEM containing 10% fetal bovine serum (FBS; Gibco) and MDI (520 μM methylisobutylxanthine (IBMX; Sigma-Aldrich), 1 μM dexamethasone (Sigma-Aldrich), and 167 nM insulin (Gibco)) with or without A3334. On day 4, the medium was replaced with DMEM containing 10% FBS and 167 nM insulin with or without A3334 and changed with fresh identical medium every 2 days up to day 14 post-induction. Cells were incubated at 37° C. in a 5% CO2 environment.
Oil Red O staining. […] For the quantification of lipid contents, the Oil Red O was eluted by the addition of 500 μl isopropanol containing 4% nonidet P-40 to each well and the absorbance was measured spectrophotometrically at 590 nm.
ORO staining. […] In the morning each well was washed thoroughly with water and images of the ORO staining were recorded with a Nikon bright-field optical microscope (Nikon TE-2000U, Tokyo, Japan) and quantified for further statistical analysis. For quantify lipid contents, the ORO was eluted by addition of 500 µl isopropanol containing 4% nonidet P-40 to each well and the absorbance was measured spectrophotometrically at 590 nm. […]

HFD-induced obese mice = experiment: HFD-induced obese mice, oral administration during 16 weeks of HFD; type: in vivo; conditions: HFD 16 weeks
Protocol: Anti-obesity effects of […], a small molecule […] inhibitor. Referring now to FIG. 34, C57BL/6N mice were fed HFD for 16 weeks with or without oral administration of 25 mpk […] or Orlistat. Orlistat is an anti-obesity drug that is thought to act by limiting the absorption of fats from the diet (e.g., a lipase inhibitor). […] Referring now to FIG. 35, The C57BL/6N mice were grown with HFD for 16 weeks with or without oral administration of 25 mpk of […], […], and I3O. […] The increase in adipocyte cell sizes and enhancement of inflammation (evaluated by crown like structures; blue; FIG. 35B) were suppressed by treatment with […] in the HFD mice.

MCD-induced NASH mice = experiment: MCD diet-induced NASH mice; type: in vivo; conditions: MCD diet 7 weeks; for hepatosteatosis (H&E): then 25 mg/kg daily oral gavage 3 weeks
Protocol: NASH study. Eight-week-old wild-type male C57BL/6N mice (KOATECH, Seoul, Korea) were fed on the methionine-choline deficient (MCD) diet for 7 weeks, followed by treatment with vehicle, A3334, A3051, or I3O of (25 mg kg^−1) sitagliptin (25 mg kg^−1) for another 3 weeks via daily oral gavage.
Collagen staining. 4 µm-liver tissues sections were stained using two common collagen staining methods. For Masson's trichrome staining, slides were fixed in Bouin's solution for 1 h. After incubation in Weigert's iron hematoxylin solution for 10 min, the slides were stained with Biebrich Scarlet-Acid Fuchsin and Aniline blue for 5 min. The collagen fibers were stained blue and the nuclei were stained black. For picrosirius red staining, sections were stained with Weigert's solution for 8 min and picrosirius red for 1 h. The collagen fibers were stained red with blue nuclei.

CXXC5-DVL interaction [1] = molecular target: T1, CXXC5-DVL interaction (Homo sapiens, UniProt O14640); experiment: in vitro CXXC5-DVL PPI inhibition screening assay (FITC-tagged PTD-DBMP on DVL-PDZ, fluorescence); type: binding
T1 sequence (O14640 251-323 limits assumed): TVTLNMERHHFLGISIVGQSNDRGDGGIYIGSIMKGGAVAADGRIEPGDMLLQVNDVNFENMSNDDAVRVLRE
Protocol: Screening for compounds that inhibit the CXXC5-DVL interaction. […] CELL. DEATH. DIFFER. […] After the addition of 10 μM FITC-tagged PTD-DBMP to each well, each compound in the chemical library or control (DMSO) was treated to the well at a final concentration of 30 μM. The fluorescence intensity was measured using a Fluorstar Optima microplate reader (BGM Lab Technologie, Ortenberg, Germany) and normalized as follows: “(‘compounds-treated group’−‘blank’)/(‘DMSO-treated control’−‘blank’)*100”.

CXXC5-DVL interaction [2] = molecular target: T1, CXXC5-DVL interaction; experiment: Dvl-CXXC5 in vitro binding assay, (PTD-DBMP)-(PZD-DVL), concentration dependent
[3] = FIG. 33A-33C, unit inferred, read-out: IC50, in vitro (PTD-DBMP)-(PZD-DVL) binding analyses

IC50 (CXXC5-DVL interaction [2]; [3]): 7.71 nM
Structure (SMILES): CO/N=C1/C(=C2/C(=O)Nc3cc(Cl)c(Cl)cc32)Nc2ccccc21 [Compound A3051, 5,6-dichloroindirubin-3′-methoxime]
adipogenic differentiation of 3T3-L1 preadipocytes (3T3-L1 preadipocytes): significant anti-differentiation effects
adipocyte cell size and inflammation (crown like structures) (HFD-induced obese mice; 25 mpk oral): showed reduction in adipocyte size and anti-inflammatory effects, but those effects were lower when compared to that of the A3334 treatment
hepatosteatosis (H&E) (MCD-induced NASH mice): also reduced hepatosteatosis, but revealed only marginal effects compared to A3334
inhibition of CXXC5-DVL interaction (in words) (CXXC5-DVL interaction [1]): effectively inhibited interaction between CXXC5 and DVL

IC50 (CXXC5-DVL interaction [2]; FIG. 10B, read-out: CXXC5-Dvl PPI inhibition IC50): 63.1 nM
IC50 (CXXC5-DVL interaction [2]; [3]): 25.8 nM
Structure (SMILES): COc1ccc2c(c1)/C(=C1/Nc3ccccc3/C1=N\O)C(=O)N2 [Compound A3334, 5-Methoxyindirubin-3′-oxime]
adipogenic differentiation of 3T3-L1 preadipocytes (3T3-L1 preadipocytes): efficiently inhibited the adipogenic differentiation of 3T3-L1 preadipocytes; also recorded: significant anti-differentiation effects
HFD-induced body weight gain and abdominal obesity (HFD-induced obese mice; 25 mpk oral): not observed in the HFD mice treated with A3334
adipocyte cell size and inflammation (crown like structures) (HFD-induced obese mice; 25 mpk oral): suppressed by treatment with A3334
fatty liver and white adipocyte tissue (HFD-induced obese mice; 25 mpk oral): suppression of fatty liver and white adipocyte tissue
glucose tolerance (GTT) and insulin tolerance (ITT) (HFD-induced obese mice; 25 mpk oral): significantly improved by the A3334 treatment
triglyceride, total cholesterol, HDL-cholesterol (HFD-induced obese mice; 25 mpk oral): significantly reduced the level of triglyceride and total cholesterol and increased the level of HDL-cholesterol
inhibitory effect on weight gain compared with orlistat (HFD-induced obese mice; both 25 mpk): much more significant than the effects observed in the HFD mice treated with orlistat
ALT and AST levels (MCD-induced NASH mice; then 25 mg/kg daily 3 weeks): mostly abolished by A3334 treatment
FFAs and TG in serum (MCD-induced NASH mice; then 25 mg/kg daily 3 weeks): mostly abolished with A3334 treatment
fibrosis, histological analyses (MCD-induced NASH mice; then 25 mg/kg daily 3 weeks): improvement of the MCD-diet induced fibrosis by A3334
liver mRNA of pro-inflammation, FA oxidation, apoptosis and fibrosis markers (MCD-induced NASH mice; then 25 mg/kg daily 3 weeks): significantly reduced by A3334
hepatosteatosis (H&E) (MCD-induced NASH mice): significantly abolished by A3334 co-treatment
inhibition of CXXC5-DVL interaction (in words) (CXXC5-DVL interaction [1]): effectively inhibited interaction between CXXC5 and DVL
